Experimental findings from US20010010814A1, “[…] ENCODING PRO-APOPTOTIC BAX GENE AND USES THEREOF” (priority 1998, published 2001) are described below.

Like-named read-outs stand apart in the source and are kept apart here.

The subject of one test is SW626 cells. As to the kind of experiment: MTS cell viability assay, SW626. It counts as cell-based. To be noted: Homo sapiens, SW626, 48 h, read-out: IC50 of taxol. How it is done:
(§1) The replication-incompetent adenoviral type 5 recombinant vectors encoding bax (Ad/Bax), and Cre recombinase (Ad/Cre), were generated as described. Ad/LacZ, encoding the E. coli LacZ gene, was provided by Robert Gerald (The Center for Transgene Technology and Gene Therapy, Leuven. Belgium). All recombinant adenoviruses were propagated in 293 cells and purified by centrifugation in CsCl gradients by a standard protocol. For viral infection in dishes, the cells were plated in 6 or 96 wells the day before the experiment. The viruses were then added at a designed multiplicity of infection (moi) and incubated for 1 to 2 hours. […]
(§2) Cells were seeded in either 6-well or 96-well plates 24 hours before viral infection. […] Cell viability was determined using a calorimetric method with 3-(4,5-dimehtylthiazol-2-yl)-5-(3-carboxymethoxyphenyl)-2-(4-sulfophenyl)-2H-tetrazolium (MTS) according to the instructions of the manufacturer (Promega). […]
(§3) To determine the cytotoxic effects of Bax, five ovarian cancer cell lines were co-infected with Ad/Bax and Ad/Cre or Ad/lacZ and Ad/Cre at ratio of 5 to 1 at a total moi of 100. After 48 hours, cell viability was determined by MTS assays (FIG. 11). […]
(§4) Stable overexpression of Bax in some cancer cell lines synergizes the killing effect of chemotherapy or radiotherapy. […] Cell viability was measured by an MTS assay. […]
(Tetrazolium dyes change colour on reduction, which living cells bring about.)

Another test deals with SKOV3.ip1 cells. As to the kind of experiment: MTS cell viability assay, SKOV3.ip1. The class given is cell-based. To be noted: Homo sapiens, 48 h, read-out: IC50 of taxol. The procedure: as §1, §2, §3, §4
In test [1] the test system is primary ovarian cancer cells from ascites of patients. The test can be described thus: MTS cell viability assay, primary ovarian cancer cells. It counts as cell-based, human. How it is done:
Primary ovarian cancer cells were isolated by affinity purification from ascites obtained from patients with ovarian cancer. Fresh ascites was centrifuged to collect cells in suspension. The cells were then washed and resuspended in PBS with 0.1% BSA. The CC49 antibody (provided by Dr. Jeffrey Schlom, NIH, Bethesda, Md.), which specifically recognizes the pancarcinomatous antigen TAG-72, was added to the cell suspension at a concentration of 1 μg/10^7 cells, and incubated at 4° C. for one hour. To isolate the immuno-complex formed by the CC49 antibody and the TAG-72 expressing tumor cells, magnetic Dynabeads (Dynal Inc. Lake success, N.Y.) coated with a secondary anti-panmouse IgG antibody were added at a ratio of 4 beads/cell, according to the protocol of the manufacturer. The bead-targeted complexes were then washed and captured with a magnetic particle concentrator (Dynal Inc.). Finally, the purified cells were released from the beads by brief trypsinization and recovered in RPMI complete medium.
as §2

Setting [2] is: combined treatment with Bax (Ad/Bax plus Ad/Cre, moi 100).

The term IC50 denotes the concentration that inhibits the measured activity by half. `CC(=O)O[C@H]1C(=O)[C@@]2(C)[C@H]([C@H](OC(=O)c3ccccc3)[C@]3(O)C[C@H](OC(=O)[C@H](O)[C@@H](NC(=O)c4ccccc4)c4ccccc4)C(C)=C1C3(C)C)[C@]1(OC(C)=O)CO[C@@H]1C[C@@H]2O` [taxol]: the 50% inhibitory concentration (IC50) with SW626 cells (setting [2]) is 5 µg/mL; with SW626 cells (control cells), 31 µg/mL; in the test with SKOV3.ip1 cells (setting [2]) it was 13 µg/mL; in the test with SKOV3.ip1 cells (control cells), 39 µg/mL. Besides, the “cell death (MTS)” value in test [1] (taxol 20 μg/ml alone, 48 hours) is recorded as 15%; in test [1] (taxol 20 μg/ml combined with Bax (Ad/Bax and Ad/Cre, 200 moi)), “over 50%”.
